Experimental data reported in patent US11512075B2 (priority 2017, dated 2022).
Entries after “also recorded” stand apart in the source; their conditions may differ.

Columns and labels:
[1] = system: chloroquine phosphate-induced pruritus in mice; design: species or system C57BL/6J mice; settings: mouse, in vivo
human KOR [2] = target: T1, human KOR (Homo sapiens, UniProt P41145); assay type: cell-based
human KOR [3] = target: T1, human KOR; assay type: binding

Row | Structure (SMILES) | suppression of itch (scratching) response [1] | KOR agonist potency (human KOR [2]) | efficacy in G protein signaling (inhibition of cAMP accumulation) (human KOR [2]) | affinity for the κ-OR (radioligand competition binding, Ki) (human KOR [3])
1 | COC(=O)[C@@H]1C[C@H](OC(C)=O)C(=O)[C@@H]2[C@H]3C[C@@H](c4ccoc4)OC(=O)[C@@H]3CC[C@]21C [20-nor-SalA, 20-nor-salvinorin A] | suppressed the itch response; also recorded: similarly effective to SalA and another conventional agonist (U50,488H) | high potency | full agonist | high affinity
2 | COC(=O)[C@@H]1C[C@H](OC(C)=O)C(=O)[C@H]2[C@@]1(C)CC[C@H]1C(=O)O[C@H](c3ccoc3)C[C@]21C [SalA, salvinorin A, reference compound] | suppressed the itch response |  | slightly higher affinity and efficacy | 
